Assay results taken from patent US4391827A, “3-(2-Hydroxy-4-(substituted)phenyl)-cycloalkanone and cycloalkanol analgesic agents and intermediates therefor” (priority 1981, dated 1983).

Tests used:
[1] = Suppression of Phenylbenzoquinone Irritant-Induced Writhing (PBQ); assay type: in vivo, Carworth Farms CF-1 mice; conditions: subcutaneously, mouse; for ED50: sc, PBQ-induced writhing, read-out: Analgesic Activity ED50, PBQ; for Analgesic Activity % Protection, PBQ: at 56 mg./kg.
Experimental: Suppression of Phenylbenzoquinone Irritant-Induced Writhing
Groups of 5 Carworth Farms CF-1 mice are pretreated subcutaneously or orally with saline, morphine, codeine or the test compound. Twenty minutes (if treated subcutaneously) or fifty minutes (if treated orally) later, each group is treated with intraperitoneal injection of phenylbenzoquinone, an irritant known to produce abdominal contractions. The mice are observed for 5 minutes for the presence or absence of writhing starting 5 minutes after the injection of the irritant. MPE50 's of the drug pretreatments in blocking writhing are ascertained.
(§1) Results of the above tests are recorded as percent maximum possible effect (%MPE). The %MPE of each group is statistically compared to the %MPE of the standard and the predrug control values. The %MPE is calculated as follows: [formula]
(§2) The following abbreviations are used in the Tables: PBQ=phenylbenzoquinone-induced writhing; TF=tail flick; HP=hot plate; RTC=rat tail clamp; and FJ=flinch jump.
(§3) Single values in the tables are ED50 's. A number followed by a second number in parentheses reports the % protection observed at a given dose. Thus, 31(56) indicates 31% protection at a dose of 56 mg./kg. of body weight.

[2] = Mouse Hot Plate Analgesic Testing (HP); assay type: in vivo, mice; parameters: key to Analgesic Activity, HP (IA@10): IA: inactive
Experimental: (a) Mouse Hot Plate Analgesic Testing
The method used is modified after Woolfe and MacDonald, J. Pharmacol. Exp. Ther., 80, 300-307 (1944). A controlled heat stimulus is applied to the feet of mice on a 1/8-inch thick aluminum plate. A 250 watt reflector infrared heat lamp is placed under the bottom of the aluminum plate. A thermal regulator, connected to thermistors on the plate surface, programs the heat lamp to maintain a constant temperature of 57° C. Each mouse is dropped into a glass cylinder (61/2-inch diameter) resting on the hot plate, and timing is begun when the animal's feet touch the plate. The mouse is observed at 0.5 and 2 hours after treatment with the test compound for the first "flicking" movements of one or both hind feet, or until 10 seconds elapse without such movements. Morphine has an MPE50 =4-5.6 mg./kg. (s.c.).
as §1, §2, §3

[3] = Mouse Tail Flick Analgesic Testing (TF); assay type: in vivo, mice; conditions: for Analgesic Activity % Protection, TF / ED50: subcutaneously, mouse tail flick; for Analgesic Activity % Protection, TF: at 10 mg./kg.; for ED50: sc
From the text: (b) Mouse Tail Flick Analgesic Testing
Tail flick testing in mice is modified after D'Amour and Smith, J. Pharmacol. Exp. Ther., 72, 74-79 (1941) using controlled high intensity heat applied to the tail. Each mouse is placed in a snug-fitting metal cylinder, with the tail protruding through one end. This cylinder is arranged so that the tail lies flat over a concealed heat lamp. At the onset of testing an aluminum flag over the lamp is drawn back, allowing the light beam to pass through the slit and focus onto the end of the tail. A timer is simultaneously activated. The latency of a sudden flick of the tail is ascertained. Untreated mice usually react within 3-4 seconds after exposure to the lamp. The end point for protection is 10 seconds. Each mouse is tested at 0.5 and 2 hours after treatment with morphine and the test compound. Morphine has an MPE50 of 3.2-5.6 mg./kg. (s.c.).
as §1, §2, §3

[4] = Haffner Tail Pinch Procedure (rat tail clamp, RTC); assay type: in vivo, male albino rats, Charles River (Sprague-Dawley) CD strain; conditions: for ED50: sc, subcutaneously, rat tail clamp, read-out: Analgesic Activity ED50, RTC
Experimental: Effect on the Haffner Tail Pinch Procedure
A modification of the procedure of Haffner, Experimentelle Prufung Schmerzstillender. Deutch Med. Wschr., 55, 731-732 (1929) is used to ascertain the effects of the test compound on aggressive attacking responses elicited by a stimulus pinching the tail. Male albino rats (50-60 g.) of the Charles River (Sprague-Dawley) CD strain are used. Prior to drug treatment, and again at 0.5, 1, 2 and 3 hours after treatment, a Johns Hopkins 2.5-inch "bulldog" clamp is clamped onto the root of the rat's tail. The endpoint at each trial is clear attacking and biting behavior directed toward the offending stimulus, with the latency for attack recorded in seconds. The clamp is removed in 30 seconds if attacking has not yet occurred, and the latency of response is recorded as 30 seconds. Morphine is active at 17.8 mg./kg. (i.p.).
as §1, §2, §3

"Flinch-Jump" Test (FJ) = assay type: in vivo, male albino rats, Charles River (Sprague-Dawley) CD strain; conditions: sc; subcutaneously; rat flinch jump; read-out: Analgesic Activity ED50, FJ
From the text: A modification of the flinch-jump procedure of Tenen, Psychopharmacologia, 12, 278-285 (1968) is used for determining pain thresholds. Male albino rats (175-200 g.) of the Charles River (Sprague-Dawley) CD strain are used. Prior to receiving the drug, the feet of each rat are dipped into a 20% glycerol/saline solution. The animals are then placed in a chamber and presented with a series of 1-second shocks to the feet which are delivered in increasing intensity at 30-second intervals. These intensities are 0.26, 0.39, 0.52, 0.78, 1.05, 1.31, 1.58, 1.86, 2.13, 2.42, 2.72 and 3.04 mA. Each animal's behavior is rated for the presence of (a) flinch, (b) squeak and (c) jump or rapid forward movement at shock onset. Single upward series of shock intensities are presented to each rat just prior to, and at 0.5, 2, 4 and 24 hours subsequent to drug treatment.
as §1, §2, §3

[5] = subcutaneously, at 10 mg./kg., mouse hot plate

CCCCCCC(C)(C)c1ccc([C@H]2C[C@@H](O)CC[C@@H]2C)c(O)c1 (relative stereo) [cis,trans-3-[4-(1,1-dimethylheptyl)-2-hydroxyphenyl]-4-methylcyclohexanol]
ED50 [1]: ≤ 1 mg/kg

CC(CCCc1ccccc1)Oc1ccc([C@H]2CCC[C@H](O)C2)c(O)c1 (stereo partly drawn)
Analgesic Activity % Protection, PBQ [1]: 28%

CCCCCCC(C)(C)c1ccc([C@@H]2CC(=O)CC[C@@H]2C)c(O)c1 (relative stereo) [cis-3-[4-(1,1-Dimethylheptyl)-2-hydroxyphenyl]-4-methylcyclohexanone]
ED50 [1]: 1.51 mg/kg

CCCCCCC(C)(C)c1ccc([C@]2(C)CCC[C@H](O)C2)c(O)c1 (relative stereo) [Z-3-[4-(1,1-dimethylheptyl)-2-hydroxyphenyl]-3-methylcyclohexanol]
ED50 [1]: ≥ 56 mg/kg

COC12CCCC(C1)c1ccc(O)cc1O2 (stereo not drawn) [x=1; A+B=oxo^(c); R2=H; R3=H; Z=O; W=H, 3-(2,4-Dihydroxyphenyl)cyclohexanone Methyl Ketal]
Analgesic Activity % Protection, PBQ [1]: 43%

CCCCCCC(C)(C)c1ccc([C@@H]2CC[C@H](O)C2)c(O)c1 (relative stereo) [cis-3-[4-(1,1-Dimethylheptyl)-2-hydroxyphenyl]cyclopentanol]
Analgesic Activity % Protection, PBQ [1]: 57%

CCCCCCC(C)(C)c1ccc([C@H]2CCCC[C@H](O)C2)c(O)c1 (relative stereo) [trans-3-[4-(1,1-dimethylheptyl)-2-hydroxyphenyl]cycloheptanol]
Analgesic Activity, HP (IA@10) [2, 5]: IA
ED50 [1]: 1.53 mg/kg
Analgesic Activity % Protection, TF [3]: 65%
ED50 [4]: 5.6 mg/kg
ED50 ("Flinch-Jump" Test (FJ)): 5.4 mg/kg

Oc1cc(OCCCCc2ccccc2)ccc1[C@@H]1CCC[C@H](O)C1 (relative stereo) [cis-3-[2-Hydroxy-4-(4-phenylbutyloxy)phenyl]cyclohexanol]
ED50 [1]: ≤ 56 mg/kg

CCCCCCC(C)(C)c1ccc(C2(C)CCCC(=O)C2)c(O)c1 (stereo not drawn) [3-[4-(1,1-Dimethylheptyl)-2-hydroxyphenyl]-3-methylcyclohexanone]
Analgesic Activity % Protection, PBQ [1]: 31%

CN1CC[C@]23c4c5ccc(O)c4O[C@H]2[C@@H](O)C=C[C@H]3[C@H]1C5 [Morphine, reference compound]
MPE50, hot plate ([2]; s.c., mouse): 4 to 5.6 mg/kg
MPE50, tail flick ([3]; s.c., mouse): 3.2 to 5.6 mg/kg
activity in Haffner tail pinch ([4]; 17.8 mg./kg. (i.p.), rat): active

CCCCCCC(C)(C)c1ccc(C2=CC(=O)CCC2)c(O)c1 [3-[4-(1,1-Dimethylheptyl)-2-hydroxyphenyl]cyclohex-2-enone]
Analgesic Activity % Protection, PBQ [1]: 20%

CCCCCCC(C)(C)c1ccc([C@@H]2C[C@@H](O)CC[C@H]2C)c(O)c1 (relative stereo) [trans,trans-3-[4-(1,1-dimethylheptyl)-2-hydroxyphenyl]-4-methylcyclohexanol]
ED50 [1]: 0.5 mg/kg

CCCCCCC(C)(C)c1ccc(C2CCCC(=O)C2)c(OCc2ccccc2)c1 (stereo not drawn) [3-[2-Benzyloxy-4-(1,1-dimethylheptyl)phenyl]cyclohexanone]
Analgesic Activity % Protection, PBQ [1]: 20%

CCCCCCC(C)(C)c1ccc([C@H]2CCC[C@H](O)C2)c(O)c1 (relative stereo) [trans-3-[4-(1,1-Dimethylheptyl)-2-hydroxyphenyl]cyclohexanol]
ED50 [1]: 3.8 mg/kg

CCCCCCC(C)(C)c1ccc(C2CCCC(=O)C2)c(O)c1 (stereo not drawn) [3-[4-(1,1-Dimethylheptyl)-2-hydroxyphenyl]cyclohexanone]
ED50 [1]: 4.5 mg/kg
ED50 [3]: 15.3 mg/kg

CCCCCCC(C)(C)c1ccc([C@@H]2CCCC[C@H](O)C2)c(O)c1 (relative stereo) [cis-3-[4-(1,1-dimethylheptyl)-2-hydroxyphenyl]cycloheptanol]
Analgesic Activity % Protection, HP [2, 5]: 27%
ED50 [1]: 1.5 mg/kg
Analgesic Activity % Protection, TF [3]: 32%
ED50 [4]: 7.7 mg/kg
ED50 ("Flinch-Jump" Test (FJ)): 3.5 mg/kg

Oc1cc(OCCCCc2ccccc2)ccc1[C@H]1CCC[C@H](O)C1 (relative stereo)
ED50 [1]: ≥ 56 mg/kg

CCCCCCC(C)(C)c1ccc(C2CCC(=O)C2)c(O)c1 (stereo not drawn) [3-[4-(1,1-Dimethylheptyl)-2-hydroxyphenyl]cyclopentanone]
Analgesic Activity % Protection, PBQ [1]: 15%

CCCCCCC(C)(C)c1ccc([C@H]2CC[C@H](O)C2)c(O)c1 (relative stereo)
Analgesic Activity % Protection, PBQ [1]: 36%

CCCCCCC(C)(C)c1ccc([C@@H]2CCC[C@H](O)C2)c(O)c1 (relative stereo) [cis-3-[4-(1,1-dimethylheptyl) 2-hydroxyphenyl]cyclohexanol]
ED50 [1]: 1.1 mg/kg
ED50 [3]: 6.8 mg/kg
ED50 [4]: 4.7 mg/kg
ED50 ("Flinch-Jump" Test (FJ)): 4 mg/kg

CC(CCCc1ccccc1)Oc1ccc(C2CCCC(=O)C2)c(O)c1 (stereo not drawn) [3-[2-hydroxy-4-(2-(5-phenylpentyloxy))phenyl]cyclohexanone]
ED50 [1]: ≥ 56 mg/kg

O=C1CCCC(c2ccc(O)cc2O)C1 (stereo not drawn) [x=1; A+B=oxo; R2=H; R3=H; Z=O; W=H, 3-(2,4-Dihydroxyphenyl)cyclohexanone]
Analgesic Activity % Protection, PBQ [1]: 32%

CC(CCCc1ccccc1)Oc1ccc([C@@H]2CCC[C@H](O)C2)c(O)c1 (stereo partly drawn) [cis-3-[2-hydroxy-4-(2-(5-phenylpentyloxy))phenyl]cyclohexanol]
ED50 [1]: 38 mg/kg

CCCCCCC(C)(C)c1ccc(C2CCCCC(=O)C2)c(O)c1 (stereo not drawn) [3-[4-(1,1-Dimethylheptyl)-2-hydroxyphenyl]cycloheptanone]
Analgesic Activity % Protection, HP [2, 5]: 33%
ED50 [1]: 2.15 mg/kg
Analgesic Activity % Protection, TF [3]: 58%
ED50 [4]: 4.4 mg/kg
ED50 ("Flinch-Jump" Test (FJ)): 10.8 mg/kg
